Results from patent US9790229B2, “Bruton's tyrosine kinase inhibitors” (priority 2009, dated 2017).

These molecules were tested against BTK (Homo sapiens (Human), UniProt Q06187) (assay: In vitro BTK kinase assay: BTK-POLYGAT-LS ASSAY). Conditions: not given.
BTK, sequence (Q06187 whole entry): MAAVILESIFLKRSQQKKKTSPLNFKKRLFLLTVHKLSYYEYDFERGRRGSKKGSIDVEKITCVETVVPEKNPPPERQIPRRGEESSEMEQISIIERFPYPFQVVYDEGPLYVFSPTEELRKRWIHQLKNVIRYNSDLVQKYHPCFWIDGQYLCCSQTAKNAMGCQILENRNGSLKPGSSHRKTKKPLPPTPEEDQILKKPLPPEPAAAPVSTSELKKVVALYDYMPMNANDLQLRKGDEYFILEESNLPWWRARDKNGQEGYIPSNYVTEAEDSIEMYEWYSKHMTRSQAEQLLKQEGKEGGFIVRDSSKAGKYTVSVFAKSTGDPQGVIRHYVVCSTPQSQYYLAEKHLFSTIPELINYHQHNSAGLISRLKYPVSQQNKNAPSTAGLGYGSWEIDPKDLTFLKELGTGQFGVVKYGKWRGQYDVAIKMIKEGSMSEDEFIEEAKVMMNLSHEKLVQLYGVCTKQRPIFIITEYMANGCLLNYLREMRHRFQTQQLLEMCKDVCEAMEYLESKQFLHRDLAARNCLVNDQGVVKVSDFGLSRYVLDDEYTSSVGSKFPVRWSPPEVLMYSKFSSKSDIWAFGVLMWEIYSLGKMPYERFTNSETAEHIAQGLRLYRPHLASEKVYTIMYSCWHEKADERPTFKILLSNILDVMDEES

Row | SMILES | IC50 [nM]
1 | O=C(Nc1cccc(C2CCCN(c3ncnc4[nH]ccc34)C2)c1)c1ccccc1 (centres unmarked) [Cmpd 2, N-(3-(1-(7H-pyrrolo[2,3-d]pyrimidin-4-yl)piperidin-3-yl)phenyl)benzamide] | 1000 to 10000
2 | O=C1C(Nc2ccccc2)CCCN1[C@@H]1CCCN(c2ncnc3[nH]ccc23)C1 (stereo partly drawn) [compound 271, (3′R)-3-(phenylamino)-1′-(7H-pyrrolo[2,3-d]pyrimidin-4-yl)-1,3′-bipiperidin-2-one] | 100 to 999
3 | O=C(Nc1cccc(C2CCCN(c3ncnc4[nH]ccc34)C2)c1)Nc1ccccc1-n1ccnc1 (centres unmarked) [Cmpd 35, 1-(2-(1H-imidazol-1-yl)phenyl)-3-(3-(1-(7H-pyrrolo[2,3-d]pyrimidin-4-yl)piperidin-3-yl)phenyl)urea] | 1000 to 10000
4 | O=C(Nc1cccc(C2CCCN(c3ncnc4[nH]ccc34)C2)c1)Nc1c(Cl)cccc1C(F)(F)F (centres unmarked) [compound 161] | 100 to 999
5 | CC(C)CN1CCN(c2ncnc3[nH]ccc23)CC1c1cccc(NC(=O)Nc2ccccc2)c1 (centres unmarked) [compound 129, 1-(3-(1-isobutyl-4-(7H-pyrrolo[2,3-d]pyrimidin-4-yl)piperazin-2-yl)phenyl)-3-phenylurea] | 1000 to 10000
6 | O=C(Nc1cccc(C2CCCN(c3ncnc4[nH]ccc34)C2)c1)Nc1c(F)cccc1C(F)(F)F (centres unmarked) [compound 194] | 1000 to 10000
7 | O=C(COc1ccccc1)Nc1cccc(C2CCCN(c3ncnc4[nH]ccc34)C2)c1 (centres unmarked) [Cmpd 22, N-(3-(1-(7H-pyrrolo[2,3-d]pyrimidin-4-yl)piperidin-3-yl)phenyl)-2-phenoxyacetamide] | 1000 to 10000
8 | Nc1ncnc(N2CCC(F)C(N3CCCC(Nc4cc(F)cc(Cl)c4)C3=O)C2)c1F (centres unmarked) [compound 340, 1′-(6-Amino-5-fluoropyrimidin-4-yl)-3-(3-chloro-5-fluorophenylamino)-4′-fluoro-1,3′-bipiperidin-2-one] | 100 to 999
9 | O=C(Nc1cccc(C2CCCN(c3ncnc4[nH]ccc34)C2)c1)Nc1ccccc1C(F)(F)F (centres unmarked) [compound 173] | 100 to 999
10 | COc1ccc(NC(=O)Nc2cccc(C3CCCN(c4ncnc5[nH]ccc45)C3)c2)cc1 (centres unmarked) [compound 201] | 1000 to 10000
11 | O=C(Nc1cccc(C2CCCN(c3ncnc4[nH]ccc34)C2)c1)N[C@H](CO)C1CCCCC1 (some centres unmarked) [compound 203] | 1000 to 10000
12 | CN(C)Cc1ccccc1NC(=O)Nc1cccc(C2CCCN(c3ncnc4[nH]ccc34)C2)c1 (centres unmarked) [Cmpd 63, 1-(3-(1-(7H-pyrrolo[2,3-d]pyrimidin-4-yl)piperidin-3-yl)phenyl)-3-(2-((dimethylamino)methyl)phenyl)urea] | 1000 to 10000
13 | O=C1[C@@H](Nc2ccccc2)CCN1[C@@H]1CCCN(c2ncnc3[nH]ccc23)C1 [compound 272] | 1000 to 10000
14 | O=C(Nc1cccc(C2CCCN(c3ncnc4[nH]ccc34)C2)c1)Nc1c(F)cc(F)cc1N1CCCC1 (centres unmarked) [Cmpd 49, 1-(3-(1-(7H-pyrrolo[2,3-d]pyrimidin-4-yl)piperidin-3-yl)phenyl)-3-(2,4-difluoro-6-(pyrrolidin-1-yl)phenyl)urea] | < 100
15 | CC(C)c1ccccc1NC(=O)Nc1cccc(C2CN(c3ncnc4[nH]ccc34)CCN2CCO)c1 (centres unmarked) [compound 133, 1-(3-(1-(2-hydroxyethyl)-4-(7H-pyrrolo[2,3-d]pyrimidin-4-yl)piperazin-2-yl)phenyl)-3-(2-isopropylphenyl)urea] | 100 to 999
16 | O=C(NC[C@H]1CCCC[C@H]1O)Nc1cccc(C2CCCN(c3ncnc4[nH]ccc34)C2)c1 (some centres unmarked) [compound 218] | 1000 to 10000
17 | O=C(Nc1cccc(C2CCCN(c3ncnc4[nH]ccc34)C2)c1)Nc1ccccc1OC(F)F (centres unmarked) [compound 191] | 1000 to 10000
18 | O=C(Nc1cc(C2CCCN(c3ncnc4[nH]ccc34)C2)ccc1OC(F)(F)F)c1ccccc1F (centres unmarked) [Cmpd 89, N-(5-(1-(7H-pyrrolo[2,3-d]pyrimidin-4-yl)piperidin-3-yl)-2-(trifluoromethoxy)phenyl)-2-fluorobenzamide] | 1000 to 10000
19 | CN1CCN(c2ccccc2NC(=O)Nc2cccc(C3CCCN(c4ncnc5[nH]ccc45)C3)c2)CC1 (centres unmarked) [compound 209] | 1000 to 10000
20 | O=C(Nc1cccc(C2CCCN(c3ncnc4[nH]ccc34)C2)c1)Nc1ccccc1N1CCOCC1 (centres unmarked) [compound 165] | 100 to 999
21 | O=C(Nc1cc(C2CCCN(c3ncnc4[nH]ccc34)C2)ccc1OC(F)(F)F)c1c(Cl)cccc1Cl (centres unmarked) [Cmpd 88, N-(5-(1-(7H-pyrrolo[2,3-d]pyrimidin-4-yl)piperidin-3-yl)-2-(trifluoromethoxy)phenyl)-2,6-dichlorobenzamide] | 1000 to 10000
22 | O=C1C(Nc2ccccc2)c2ccccc2N1[C@@H]1CCCN(c2ncnc3[nH]ccc23)C1 (some centres unmarked) [compound 274] | 1000 to 10000
23 | Nc1ncnc(N2CCCC(c3cccc(NC(=O)Nc4ccccc4)c3)C2)c1CCC(=O)O (centres unmarked) [compound 206] | 1000 to 10000
24 | O=C1C(Nc2ccccc2)CCN1[C@@H]1CCCN(c2ncnc3[nH]ccc23)C1 (stereo partly drawn) [compound 270, 1-((R)-1-(7H-pyrrolo[2,3-d]pyrimidin-4-yl)piperidin-3-yl)-3-(phenylamino)pyrrolidin-2-one] | 100 to 999
25 | O=C(Nc1cccc(C2CCCN(c3ncnc4[nH]ccc34)C2)c1)[C@@H](O)c1ccccc1 (stereo partly drawn) [Cmpd 18, (2S)—N-(3-(1-(7H-pyrrolo[2,3-d]pyrimidin-4-yl)piperidin-3-yl)phenyl)-2-hydroxy-2-phenylacetamide] | 1000 to 10000
26 | O=C(Nc1cc(C2CCCN(c3ncnc4[nH]ccc34)C2)ccc1OC(F)(F)F)c1ccccc1 (centres unmarked) [Cmpd 85, N-(5-(1-(7H-pyrrolo[2,3-d]pyrimidin-4-yl)piperidin-3-yl)-2-(trifluoromethoxy)phenyl)benzamide] | 100 to 999

Same assay, conditions: read-out: IC50 (10 uM ATP); 10 uM ATP; in vitro Btk kinase assay, Example 41

Row | SMILES | IC50 [nM]
27 | O=C1C(Nc2cc(Cl)cc(C(F)(F)F)c2)CCCN1[C@@H]1CCCN(c2ncnc3[nH]ncc23)C1 (stereo partly drawn) [compound 305, (3′R)-3-(3-Chloro-5-(trifluoromethyl)phenylamino)-1′-(1H-pyrazolo[3,4-d]pyrimidin-4-yl)-1,3′-bipiperidin-2-one] | < 100
28 | Nc1ncnc(N2CCC[C@@H](N3CCCC(Nc4cc(F)cc(Cl)c4)C3=O)C2)c1F (stereo in doubt) [compound 313, (3R,3′R)-1′-(6-Amino-5-fluoropyrimidin-4-yl)-3-(3-chloro-5-fluorophenylamino)-1,3′-bipiperidin-2-one] | < 100
29 | O=c1c(Nc2cccc(Cl)c2)c(Nc2cccc(C3CCCN(c4ncnc5[nH]ccc45)C3)c2)c1=O (centres unmarked) [Cmpd 71, 3-(3-(1-(7H-pyrrolo[2,3-d]pyrimidin-4-yl)piperidin-3-yl)phenylamino)-4-(3-chlorophenylamino)cyclobut-3-ene-1,2-dione] | > 10000
30 | Nc1ncnc(N2CCC[C@@H](N3CCCC(Nc4cc(F)cc(Cl)c4)C3=O)C2)c1F (stereo partly drawn) [compound 277, (3′R)-1′-(6-amino-5-fluoropyrimidin-4-yl)-3-(3-chloro-5-fluorophenylamino)-1,3′-bipiperidin-2-one] | < 100
31 | O=C(Nc1ccccc1)NC1CN(C2CCCN(c3ncnc4[nH]ccc34)C2)C1 (centres unmarked) [compound 234] | > 10000
32 | N[C@@H](C(=O)Nc1cccc(C2CCCN(c3ncnc4[nH]ccc34)C2)c1)c1ccccc1 (stereo partly drawn) [Cmpd 21, (2R)—N-(3-(1-(7H-pyrrolo[2,3-d]pyrimidin-4-yl)piperidin-3-yl)phenyl)-2-amino-2-phenylacetamide] | > 10000
33 | Nc1ncnc(N2C[C@@H](F)C[C@@H](N3CCCC(Nc4cc(Cl)cc(Cl)c4)C3=O)C2)c1F (stereo partly drawn) [compound 280, (3′R,5′S)-1′-(6-Amino-5-fluoropyrimidin-4-yl)-3-(3,5-dichlorophenylamino)-5′-fluoro-1,3′-bipiperidin-2-one] | < 100
34 | Nc1ncnc(N2CC[C@H](C(F)(F)F)[C@@H](N3CCCC(Nc4cc(Cl)cc(Cl)c4)C3=O)C2)c1F (stereo partly drawn) [compound 334, trans 1′-(6-Amino-5-fluoropyrimidin-4-yl)-3-(3,5-dichlorophenylamino)-4′-(trifluoromethyl)-1,3′-bipiperidin-2-one] | < 100
35 | O=C(Nc1cccc(C2CCCN(c3ncnc4[nH]ccc34)C2)c1)Nc1ccccc1N1CC[C@@H](O)C1 (some centres unmarked) [compound 149] | < 100
36 | O=C(Nc1ccncc1)Nc1cccc(C2CCCN(c3ncnc4[nH]ccc34)C2)c1 (centres unmarked) [Cmpd 31, 1-(3-(1-(7H-pyrrolo[2,3-d]pyrimidin-4-yl)piperidin-3-yl)phenyl)-3-(pyridin-4-yl)urea] | > 10000
37 | C[C@H]1CCN(c2ncnc(N)c2F)C[C@@H]1N1CCCC(Nc2cc(Cl)cc(Cl)c2)C1=O (stereo partly drawn) [compound 281, trans-1′-(6-Amino-5-fluoropyrimidin-4-yl)-3-(3,5-dichlorophenylamino)-4′-methyl-1,3′-bipiperidin-2-one] | < 100
38 | Cc1cc(NC(=O)Nc2cccc(C3CCCN(c4ncnc5[nH]ccc45)C3)c2)n(CCN(C)C)n1 (centres unmarked) [compound 230] | > 10000
39 | O=C(Nc1ccccc1)Nc1cc(C2CCCN(c3ncnc4[nH]ccc34)C2)cc(C(F)(F)F)c1 (centres unmarked) [Cmpd 83, 1-(3-(1-(7H-pyrrolo[2,3-d]pyrimidin-4-yl)piperidin-3-yl)-5-(trifluoromethyl)phenyl)-3-phenylurea] | > 10000
40 | Cc1cc(NC(=O)Nc2cccc(C3CCCN(c4ncnc5[nH]ccc45)C3)c2)c(C(F)(F)F)o1 (centres unmarked) [compound 236] | > 10000
41 | O=C(NCC1CCOCC1)Nc1cccc(C2CCCN(c3ncnc4[nH]ccc34)C2)c1 (centres unmarked) [compound 223] | > 10000
42 | Nc1ncnc(N2CCOCC(N3CCCC(Nc4cc(F)cc(Cl)c4)C3=O)C2)c1F (centres unmarked) [compound 345, 1-(4-(6-Amino-5-fluoropyrimidin-4-yl)-1,4-oxazepan-6-yl)-3-(3-chloro-5-fluorophenylamino)piperidin-2-one] | < 100
43 | O=C1[C@H](Nc2cc(Cl)cc(Cl)c2)CCN1[C@H]1CN(c2ncnc3[nH]ccc23)CC[C@@H]1C(F)(F)F [compound 322] | < 100
44 | CC(C)(C)c1cccc(NC(=O)Nc2cccc(C3CCCN(c4ncnc5[nH]ccc45)C3)c2)c1 (centres unmarked) [compound 264] | > 10000
45 | O=C(Nc1ccc(C2CCCC2)cc1)Nc1cccc(C2CCCN(c3ncnc4[nH]ccc34)C2)c1 (centres unmarked) [compound 255] | > 10000
46 | Cc1cc(NC(=O)Nc2cccc(C3CCCN(c4ncnc5[nH]ccc45)C3)c2)n(-c2ccccc2)n1 (centres unmarked) [compound 227] | > 10000
47 | Nc1cc(N2CCC[C@@H](N3CCCC(Nc4cc(F)cc(Cl)c4)C3=O)C2)ncn1 (some centres unmarked) [compound 361] | < 100
